Calls of active or inactive are those of the source. The calls are words filed in the database; no cut-off is given here.
What was measured:
dsDNA [1] = assay: Binding affinity to double stranded DNA ssab1 (unknown origin) incubated for 0.5 hrs in presence of different concentration DNA by fluorescence spectra analysis; format: nucleic-acid assay
Quadruplex DNA [2] = assay: Binding affinity to human G4-quadruplex Bcl2 DNA 5'- CGGGCGCGGGAGGAAGGGGGCGGGAGC-3' at 20 uM by UV-Visible absorption spectroscopic analysis; format: nucleic-acid assay
Quadruplex DNA [3] = assay: Binding affinity to human G4-quadruplex c-kit2 DNA 5'- CGGGCGGGCGCGAGGGAGGGT-3' assessed as change in fluorescence intensity at 1 uM incubated for 0.5 hrs in presence of different concentrations of DNA by fluorescence spectra analysis; format: nucleic-acid assay
A-375 [4] = assay: Induction of apoptosis in human A-375 cells assessed assessed as early apoptotic cells at 5 uM incubated for 24 hrs by Annexin V-Elab Fluor 647/propidium iodide staining based flow cytometry (reference value: 1.14 %); format: functional
LoVo = assay: Antiproliferative activity against human LoVo cells assessed as reduction in cell viability incubated for 48 hrs by CCK-8 assay; format: functional, cell-based
A-375 [5] = assay: Induction of cell cycle arrest in human A-375 cells assessed assessed as cell accumulation at G0/G1 phase at 5 uM incubated for 24 hrs by propidium iodide staining based flow cytometry (reference value: 54.25 %); format: functional
Quadruplex DNA [6] = assay: Displacement of ThT from human G4-quadruplex KRAS DNA 5'- AGGGCGGTGTGGGAAGAGGGAAGAGGGGGAGG-3' incubated for 0.5 hrs by SpectraMax M2 microplate reader analysis; format: nucleic-acid assay
Quadruplex DNA [7] = assay: Displacement of ThT from human G4-quadruplex Pu27 DNA 5'- TGGGGAGGGTGGGGAGGGTGGGGAAGG-3' incubated for 0.5 hrs by SpectraMax M2 microplate reader analysis; format: nucleic-acid assay
Quadruplex DNA [8] = assay: Binding affinity to human G4-quadruplex Oxy28 DNA 5'- GGGGTTTTGGGGTTTTGGGGTTTTGGGG -3' assessed as change in fluorescence intensity at 1 uM incubated for 0.5 hrs by fluorescence spectra analysis; format: nucleic-acid assay
dsDNA [9] = assay: Binding affinity to double stranded DNA AT15 (unknown origin) incubated for 0.5 hrs in presence of different concentration DNA by fluorescence spectra analysis; format: nucleic-acid assay
Quadruplex DNA [10] = assay: Binding affinity to human G4-quadruplex KRAS DNA 5'- AGGGCGGTGTGGGAAGAGGGAAGAGGGGGAGG-3' at 10 uM by CD spectra analysis; format: nucleic-acid assay
Quadruplex DNA [11] = assay: Displacement of ThT from human G4-quadruplex 22AG DNA 5'- AGGGTTAGGGTTAGGGTTAGGG -3' incubated for 0.5 hrs by SpectraMax M2 microplate reader analysis; format: nucleic-acid assay
A-375 [12] = assay: Induction of cell cycle arrest in human A-375 cells assessed assessed as cell accumulation at G2/M phase at 5 uM incubated for 24 hrs by propidium iodide staining based flow cytometry (reference value: 15.70 %); format: functional
dsDNA [13] = assay: Binding affinity to double stranded DNA ssab (unknown origin) incubated for 0.5 hrs in presence of different concentration DNA by fluorescence spectra analysis; format: nucleic-acid assay
Quadruplex DNA [14] = assay: Binding affinity to human G4-quadruplex Oxy28 DNA 5'- GGGGTTTTGGGGTTTTGGGGTTTTGGGG -3' assessed as change in fluorescence intensity at 1 uM incubated for 0.5 hrs in presence of different concentrations of DNA by fluorescence spectra analysis; format: nucleic-acid assay
Quadruplex DNA [15] = assay: Binding affinity to human G4-quadruplex Bcl2 DNA 5'- CGGGCGCGGGAGGAAGGGGGCGGGAGC-3' assessed as change in fluorescence intensity at 1 uM incubated for 0.5 hrs in presence of different concentrations of DNA by fluorescence spectra analysis; format: nucleic-acid assay
Quadruplex DNA [16] = assay: Binding affinity to human G4-quadruplex KRAS DNA 5'- AGGGCGGTGTGGGAAGAGGGAAGAGGGGGAGG-3' at 20 uM by UV-Visible absorption spectroscopic analysis; format: nucleic-acid assay
A549/TR = assay: Antiproliferative activity against human A549/Taxol cells assessed as reduction in cell viability incubated for 48 hrs by CCK-8 assay; format: functional, cell-based
PC-3 = assay: Antiproliferative activity against human PC-3 cells assessed as reduction in cell viability incubated for 24 hrs by CCK-8 assay; format: functional, cell-based; settings: PC-3, 24 h
dsDNA [17] = assay: Binding affinity to double stranded DNA AT15-2AT (unknown origin) incubated for 0.5 hrs in presence of different concentration DNA by fluorescence spectra analysis; format: nucleic-acid assay
dsDNA [18] = assay: Displacement of Hoechst 33342 from double stranded DNA ssab (unknown origin) incubated for 0.5 hrs by SpectraMax M2 microplate reader analysis; format: nucleic-acid assay
A2780/Taxol = assay: Antiproliferative activity against human A2780T cells assessed as reduction in cell viability incubated for 48 hrs by CCK-8 assay; format: functional, cell-based
Quadruplex DNA [19] = assay: Binding affinity to human G4-quadruplex VEGF DNA 5'- GGGCGGGCCGGGGGCGGG-3' at 20 uM by UV-Visible absorption spectroscopic analysis; format: nucleic-acid assay
Quadruplex DNA [20] = assay: Binding affinity to human G4-quadruplex KRAS DNA 5'- AGGGCGGTGTGGGAAGAGGGAAGAGGGGGAGG-3' assessed as change in fluorescence intensity at 1 uM incubated for 0.5 hrs in presence of different concentrations of DNA by fluorescence spectra analysis; format: nucleic-acid assay
A-375 [21] = assay: Induction of apoptosis in human A-375 cells assessed assessed as viable cells at 5 uM incubated for 24 hrs by Annexin V-Elab Fluor 647/propidium iodide staining based flow cytometry (reference value: 91.1 %); format: functional; settings: read-out: Activity
A-375 [22] = assay: Inhibition of RNA synthesis in human A-375 cells at 5 uM incubated for 24 hrs by EU incorporation based flow cytometry analysis; format: functional, cell-based
Quadruplex DNA [23] = assay: Binding affinity to human G4-quadruplex 22AG DNA 5'- AGGGTTAGGGTTAGGGTTAGGG -3' assessed as change in fluorescence intensity at 1 uM incubated for 0.5 hrs by fluorescence spectra analysis; format: nucleic-acid assay

Row | Structure (SMILES) | EC50 (dsDNA [1]) [nM] | Activity (Quadruplex DNA [2]) | Activity (A-375 [4]) [%] | Activity (A-375 [5]) [%] | DC50 (Quadruplex DNA [6]) [nM] | DC50 (Quadruplex DNA [7]) [nM] | Activity (Quadruplex DNA [8]) | Activity (Quadruplex DNA [10]) | DC50 (Quadruplex DNA [11]) [nM] | Activity (A-375 [12]) [%] | EC50 (dsDNA [13]) [nM] | Kd (Quadruplex DNA [15]) [nM] | Activity (Quadruplex DNA [16]) | EC50 (dsDNA [17]) [nM] | DC50 (dsDNA [18]) [nM] | Activity (Quadruplex DNA [19]) | Kd (Quadruplex DNA [20]) [nM] | viability at 5 µM (A-375 [21]) [%] | inhibition (A-375 [22]) | Activity (Quadruplex DNA [23]) | also measured
1 | COc1ccc2cc3[n+](cc2c1OC)CCc1cc2c(cc1-3)OCO2 [BERBERINE] | 450 | Active | 1.28 | 56.99 | 2640 | 540 | Active | inactive | 23500 | 14.59 | 1040 | 2440 | Active | 150 | 22100 | Active | 1890 | 35.4 | inactive | Active | Kd (Quadruplex DNA [3]): 4220 nM; IC50 (LoVo): ≥ 24300 nM; Activity (dsDNA [9]): inactive; Kd (Quadruplex DNA [14]): 1670 nM; IC50 (A549/TR): ≥ 24300 nM; IC50 (PC-3): ≥ 24300 nM; IC50 (A2780/Taxol): ≥ 24300 nM
2 | C[n+]1cc2c3c(ccc2c2ccc4cc5c(cc4c21)OCO5)OCO3 [SANGUINARIUM] | 790 | Active | 0.84 | 40.85 | 580 | 260 | Active | inactive | 2760 | 27.86 | 740 | 11000 | Active | 1070 | 3210 | Active | 2790 | 20.4 | Active | Active | Activity (Quadruplex DNA [3]): inactive; EC50 (dsDNA [9]): 610 nM; Activity (Quadruplex DNA [14]): inactive
3 | COc1ccc2c(c[n+](C)c3c4cc5c(cc4ccc23)OCO5)c1OC [CHELERYTHRINE] | 970 | Active | 1.84 | 36.15 | 850 | 480 | Active | inactive | 3040 | 30.83 | 1060 | 5800 | Active | 1120 | 3490 | Active | 1070 | 56 | Active | Active | Activity (Quadruplex DNA [3]): inactive; EC50 (dsDNA [9]): 1130 nM; Activity (Quadruplex DNA [14]): inactive
4 | c1c2c(cc3c1OCO3)-c1cc3ccc4c(c3c[n+]1CC2)OCO4 [COPTISINE] | 9390 | Active | 0 | 57.31 | 380 | 140 | Active | inactive | 1970 | 14.48 | 5570 | 1150 | Active | 3920 | 23000 | Active | 1130 | 0.022 | inactive | Active | Kd (Quadruplex DNA [3]): 2590 nM; IC50 (LoVo): ≥ 24300 nM; EC50 (dsDNA [9]): 1690 nM; Kd (Quadruplex DNA [14]): 980 nM; IC50 (A549/TR): ≥ 24300 nM; IC50 (PC-3): ≥ 24300 nM; IC50 (A2780/Taxol): ≥ 24300 nM
